Measurements taken from ChEMBL document CHEMBL4346724, “Porphyrinoid photosensitizers mediated photodynamic inactivation against bacteria” (Eur J Med Chem, 2019).

Key:
[1] = system: Helicobacter pylori; assay: Photodynamic antibacterial activity against Helicobacter pylori infected in patient assessed as bacterial eradication at 20 mg/lg, po after 4 hrs in presence of white light relative to control; format: functional
[2] = system: Helicobacter pylori; assay: Photodynamic antibacterial activity against Helicobacter pylori infected in patient assessed as bacterial eradication at 20 mg/lg, po after 4 hrs in presence of blue light relative to control; format: functional
[3] = system: Staphylococcus aureus; assay: Photodynamic antibacterial activity against Staphylococcus aureus assessed as bacterial killing within 15 mins in presence of tungsten lamps light at 37 uEm'-2sec'-1 by spectrophotometic analysis relative to control; format: functional
[4] = system: Staphylococcus aureus; assay: Photodynamic antibacterial activity against Staphylococcus aureus assessed as reduction in biofilm activity at 2.5 uM incubated for 10 mins in presence of tungsten halogen lamp light exposure at 22.5 to 180 J/cm2; format: functional
[5] = system: Pseudomonas aeruginosa; assay: Photodynamic antibacterial activity against Pseudomonas aeruginosa assessed as reduction in biofilm formation at 20 uM incubated for 10 mins in presence of tungsten halogen lamp light exposure at 22.5 to 180 J/cm2; format: functional
[6] = system: Staphylococcus aureus; assay: Photodynamic antibacterial activity against Staphylococcus aureus assessed as reduction in bacterial burden at 100 nM; format: functional
[7] = system: Pseudomonas aeruginosa; assay: Photodynamic antibacterial activity against Pseudomonas aeruginosa assessed as biofilm formation at 0.5 mg/ml in presence of light at 100 J/cm2 relative to control; format: functional
[8] = system: Pseudomonas aeruginosa; assay: Photodynamic antibacterial activity against Pseudomonas aeruginosa assessed as reduction in biofilm formation at 0.5 mg/ml in presence of light at 100 J/cm2; format: functional
[9] = system: Saccharomyces cerevisiae; assay: Photodynamic fungal activity against Saccharomyces cerevisiae assessed as reduction in fungal burden at 100 nM; format: functional
[10] = system: Escherichia coli; assay: Photodynamic antibacterial activity against Escherichia coli assessed as reduction in bacterial burden at 0.5 to 1 uM after 15 mins in presence of light irradiation at 1004 J/cm2; format: functional
[11] = system: Enterococcus faecalis; assay: Photodynamic antibacterial activity against Enterococcus faecalis assessed as reduction in bacterial burden at 5 uM after 15 mins in presence of light irradiation at 21.6 J/cm2; format: functional
[12] = system: Enterococcus faecalis; assay: Photodynamic antibacterial activity against Enterococcus faecalis assessed as reduction in bacterial burden at 10 uM after 15 mins in presence of light irradiation at 64.8 J/cm2; format: functional
[13] = system: Pseudomonas aeruginosa; assay: Photodynamic antibacterial activity against Pseudomonas aeruginosa assessed as bacterial killing at 2.5 mg/ml in presence of light at 100 J/cm2 relative to control; format: functional
[14] = system: Pseudomonas aeruginosa; assay: Photodynamic antibacterial activity against Pseudomonas aeruginosa assessed as reduction in biofilm formation at 5 mg/ml in presence of light at 100 J/cm2 relative to control; format: functional; parameters: scale not given: the % may be the effect or the level left
[15] = system: Pseudomonas aeruginosa; assay: Photodynamic antibacterial activity against Pseudomonas aeruginosa assessed as reduction in bacterial burden at 1 to 10 uM preincubated for 10 mins in dark condition followed by exposure of LED light at 66 to 266 J/cm2; format: functional
[16] = system: Enterococcus faecalis; assay: Photodynamic antibacterial activity against Enterococcus faecalis assessed as reduction in bacterial burden at 5 uM after 15 mins in presence of light irradiation at 64.8 J/cm2; format: functional
[17] = system: Pseudomonas aeruginosa; assay: Photodynamic antibacterial activity against Pseudomonas aeruginosa assessed as reduction in bacterial burden at 225 uM in presence of light at 100 J/cm2; format: functional
[18] = system: Pseudomonas aeruginosa; assay: Photodynamic antibacterial activity against Pseudomonas aeruginosa assessed as bacterial burden at 1 to 10 uM preincubated for 10 mins in dark condition followed by exposure of LED light at 66 to 266 J/cm2 relative to control; format: functional
[19] = system: Pseudomonas aeruginosa; assay: Photodynamic antibacterial activity against Pseudomonas aeruginosa assessed as reduction in bacterial burden at 100 to 225 uM preincubated with bacteria followed by exposure of mercury vapor lamp light at 100 J/cm2 for 10 mins; format: functional
[20] = system: Enterococcus faecalis; assay: Photodynamic antibacterial activity against Enterococcus faecalis assessed as reduction in bacterial burden at 5 uM after 15 mins in presence of light irradiation at 14.4 J/cm2; format: functional
[21] = system: Enterococcus faecalis; assay: Photodynamic antibacterial activity against Enterococcus faecalis assessed as reduction in bacterial burden at 30 uM in presence of light irradiation at 100 J/cm2; format: functional
[22] = system: Enterococcus faecalis; assay: Photodynamic antibacterial activity against Enterococcus faecalis assessed as reduction in bacterial burden at 10 uM in presence of light irradiation at 100 J/cm2; format: functional
[23] = system: Enterococcus faecalis; assay: Dark toxicity against Enterococcus faecalis assessed as reduction in bacterial burden; format: organism-based; details: in vivo
[24] = system: Escherichia coli; assay: Photodynamic antibacterial activity against Escherichia coli ATCC 25922 assessed as reduction in bacterial burden after 24 hrs in presence of diode laser at 6 J/cm2; format: functional
[25] = system: Enterococcus faecalis; assay: Photodynamic antibacterial activity against Enterococcus faecalis assessed as reduction in bacterial burden in presence of light irradiation; format: functional, organism-based
[26] = system: Escherichia coli; assay: Photodynamic antibacterial activity against Escherichia coli assessed as reduction in bacterial burden at 5 uM after 15 mins in presence of light irradiation at 64.8 J/cm2; format: functional, organism-based
[27] = system: Aggregatibacter actinomycetemcomitans; assay: Photodynamic antibacterial activity against Aggregatibacter actinomycetemcomitans assessed as reduction in bacterial viability at 10 uM in presence of light at 20.1 J/cm2 by propidium iodide staining-based fluorescence assay; format: functional
[28] = system: Fusobacterium nucleatum; assay: Photodynamic antibacterial activity against Fusobacterium nucleatum assessed as reduction in bacterial viability at 10 uM in presence of light at 5.3 to 20.1 J/cm2 by propidium iodide staining-based fluorescence assay; format: functional
[29] = system: Eikenella corrodens; assay: Photodynamic antibacterial activity against Eikenella corrodens assessed as reduction in bacterial viability at 10 uM in presence of light at 20.1 J/cm2 by propidium iodide staining-based fluorescence assay; format: functional
[30] = system: Aggregatibacter actinomycetemcomitans; assay: Photodynamic antibacterial activity against Aggregatibacter actinomycetemcomitans assessed as reduction in bacterial viability at 10 uM in presence of light at 5.3 J/cm2 by propidium iodide staining-based fluorescence assay; format: functional
[31] = system: Porphyromonas gingivalis; assay: Photodynamic antibacterial activity against Porphyromonas gingivalis assessed as reduction in bacterial viability at 10 uM in presence of light at 5.3 to 20.1 J/cm2 by propidium iodide staining-based fluorescence assay; format: functional
[32] = system: Capnocytophaga gingivalis; assay: Photodynamic antibacterial activity against Capnocytophaga gingivalis assessed as reduction in bacterial viability at 10 uM in presence of light at 5.3 to 20.1 J/cm2 by propidium iodide staining-based fluorescence assay; format: functional

NCC(=O)CCC(=O)O [AMINOLEVULINIC ACID]
Activity [1]: 85%
Activity [2]: 66%

CC1=Cc2cc3[nH]c(cc4nc(cc5[nH]c(cc1n2)cc5C)C(C)=C4CCC(=O)O)c(CCC(=O)O)c3C
Activity [3]: 99.9%

CN(C)CCCOc1ccc(-c2c3nc(c(-c4ccc(OCCCN(C)C)cc4)c4ccc([nH]4)c(-c4ccc(OCCCN(C)C)cc4)c4nc(c(-c5ccc(OCCCN(C)C)cc5)c5ccc2[nH]5)C=C4)C=C3)cc1
log(activity) [4]: 8
log(activity) [5]: 3

CC1(C)Cc2cc3[nH]c(cc4nc(cc5[nH]c(cc1n2)cc5C(=O)NCC[N+](C)(C)C)CC4(C)C)cc3C(=O)NCC[N+](C)(C)C
log(activity) [6]: 5

C[n+]1ccc(-c2c3nc(c(-c4cc[n+](C)cc4)c4ccc([nH]4)c(-c4cc[n+](C)cc4)c4nc(c(-c5cc[n+](C)cc5)c5ccc2[nH]5)C=C4)C=C3)cc1.Cc1ccc(S(=O)(=O)[O-])cc1.Cc1ccc(S(=O)(=O)[O-])cc1.Cc1ccc(S(=O)(=O)[O-])cc1.Cc1ccc(S(=O)(=O)[O-])cc1
Activity [7]: 99.9%
log(activity) [8]: 4

CC1(C)Cc2cc3[nH]c(cc4nc(cc5[nH]c(cc1n2)cc5CN(CCO)CCO)CC4(C)C)cc3CN(CCO)CCO
log(activity) [9]: >6

C[n+]1ccc(-c2c3nc(c(-c4cc[n+](C)cc4)c4ccc([nH]4)c(-c4c(F)c(F)c(F)c(F)c4F)c4nc(c(-c5cc[n+](C)cc5)c5ccc2[nH]5)C=C4)C=C3)cc1.[I-].[I-].[I-]
log(activity) [10]: 3

COC(=O)c1ccc(-c2c3nc(c(-c4cc[n+](C)cc4)c4ccc([nH]4)c(-c4cc[n+](C)cc4)c4nc(c(-c5cc[n+](C)cc5)c5ccc2[nH]5)C=C4)C=C3)cc1.[I-].[I-].[I-]
log(activity) [11]: 7

C[n+]1ccc(-c2c3nc(c(-c4cc[n+](C)cc4)c4ccc([nH]4)c(-c4cc[n+](C)cc4)c4nc(c(-c5cc[n+](C)cc5)c5ccc2[nH]5)C=C4)C=C3)cc1.[I-].[I-].[I-].[I-]
log(activity) [12]: 5.07
log(activity) [11]: 7
Activity [13]: >99%
Activity [14]: >99%
log(activity) [15]: <1
log(activity) [16]: 7.33
log(activity) [17]: 1.2
Activity [18]: >80%
log(activity) [19]: 4.1
log(activity) [20]: 7.35

Oc1cccc(-c2c3nc(c(-c4cccc(O)c4)c4ccc([nH]4)c(-c4cccc(O)c4)c4nc(c(-c5cccc(O)c5)c5ccc2[nH]5)CC4)C=C3)c1 [TEMOPORFIN]
log(activity) [21]: 6.7
log(activity) [22]: 5.8
log(activity) [23]: 1.5

C=Cc1c(C)c2cc3nc(c(C=O)c4[nH]c(cc5nc(cc1[nH]2)C(C)=C5C)c(C)c4C(=O)O)[C@@H](CCC(=O)O)[C@@H]3C
log(activity) [24]: 0.17

C[n+]1ccc(-c2c3nc(c(-c4cc[n+](C)cc4)c4ccc([nH]4)c(-c4ccc(C(=O)O)cc4)c4nc(c(-c5ccc(C(=O)O)cc5)c5ccc2[nH]5)C=C4)C=C3)cc1
log(activity) [25]: 7.03
log(activity) [26]: > 3

CC[C@H](C)CCCCCCCCCCC(=O)OC[C@H]1O[C@@H](OC(=O)/C(C)=C/C=C/C(C)=C/C=C/C(C)=C/C=C/C=C(C)/C=C/C=C(\C)CCC=C(C)C)[C@H](O)[C@@H](O)[C@@H]1O
log(activity) [27]: -1
log(activity) [28]: 5.3
log(activity) [29]: 3
log(activity) [30]: -0.2
log(activity) [31]: 4.9
log(activity) [32]: 6.7

C[n+]1ccc(-c2c3nc(c(-c4ccc(C(=O)O)cc4)c4ccc([nH]4)c(-c4cc[n+](C)cc4)c4nc(c(-c5ccc(C(=O)O)cc5)c5ccc2[nH]5)C=C4)C=C3)cc1
log(activity) [25]: 0.88
log(activity) [26]: > 3
